Usually IC50 stands for the concentration that inhibits the measured activity by half.

In the first test the test system is MMP-9 production. In words: Determination of MMP-9 Production Inhibitory Activity (PMA-stimulated HEC3 cells, gelatin zymography). Format: cell-based. As to conditions: Endothelial cell; immortalized human vascular endothelial cells HEC3, PMA 10^-7 M stimulation, 24 hr; test substance at 10, 2, 0.4 and 0.08 μM; read-out: IC50 (MMP-9 production inhibitory rate). Here is the method: Immortalized human vascular endothelial cells HEC3 (supplied by Prof. Iijima of Nagoya University) were subcultured in RPMI1640 medium (Sigma Ltd.) containing 10% fetal calf serum.
The HEC3 cells (5×10^4 cells/well) were plated on a 24-well plate, and cultured in RPMI1640 medium containing 10% fetal calf serum for 24 hr. Each well was washed once with serum-free RPMI1640 medium. Then, RPMI1640 medium (250 μl/well) containing 0.05% fetal calf serum was added to each well, and the cells were further cultured for 2 hr.
The supernatant was removed, and the test substances (Example compounds shown in Table 1) diluted to various concentrations were added and incubated for 1 hr in 0.05% serum-containing RPMI1640 medium and the supernatant was removed again. A medium containing a test substance having the same concentration as in the pre-treatment and PMA (10^−7 M), which is a stimulant, was added at 250 μl/well, and the cells were further cultured for 24 hr.
After completion of the culture, water (50 μl) and 25 μl of SDS buffer (240 mM Tris-HCl (pH 6.8), 8% SDS, 40% glycerol) were added to the culture supernatant (25 μl), and the mixture (10 μl) was electrophoresed on a 7.5% polyacrylamide gel containing 0.1% gelatin.
After the electrophoresis, the gel was washed with Tris-HCl buffer (pH 7.5) containing 0.5% Triton X-100 (Sigma Ltd.) for 1 hr. The gel was immersed in an activation buffer (150 mM NaCl, 50 mM Tris-HCl (pH 7.5), 10 mM CaCl2) at 37° C. for 18 hr to activate MMP-9, and then stained with CBB. The obtained MMP-9 band was converted to numerical values by a densitometer (ATTO. Ltd.).
The MMP-9 production inhibitory rate by the test substance was calculated by the following equation. MMP-9 production inhibitory rate=100−100×{(test substance addition value−non-stimulation value)/(PMA stimulation value−non-stimulation value)}
The MMP-9 production inhibitory rates of the test substance at 10, 2, 0.4 and 0.08 μM were calculated, and IC50 value of the each test substance was determined using an analysis soft (RegExcel).
For the molecule `N#CC1(c2ccccc2F)CCN(C(=O)Nc2n[nH]c3ccccc23)CC1` [Ex. 43], the IC50 came to 450 nM.

Consider `N#CC1(c2ccc(Br)cc2Cl)CCN(C(=O)Nc2n[nH]c3ccccc23)CC1` [Ex. 48], for which the IC50 came out at 770 nM.

On to `COc1ccccc1C1(C#N)CCN(C(=O)Nc2n[nH]c3ccccc23)CC1` [Ex. 40], for which the IC50 was found to be 840 nM.

The same test, now with this note: Homo sapiens, Endothelial cell, 24 h, immortalized human vascular endothelial cells HEC3, PMA 10^-7 M stimulation, test substance at 10, 2, 0.4 and 0.08 μM, read-out: IC50 (MMP-9 production inhibitory rate).
For `Cc1ccc(C(F)(F)F)cc1C1(O)CCN(C(=O)Nc2n[nH]c3ccccc23)CC1` [Ex. 141, 4-hydroxy-4-[2-methyl-5-(trifluoromethyl)phenyl]-1-piperidinecarboxylic acid (1H-indazol-3-yl)amide], the IC50 was 320 nM.

For the molecule `O=C(Nc1n[nH]c2ccccc12)N1CCN(c2ccc(Cl)c(Cl)c2)CC1` [Ex. 98, 4-(3,4-dichlorophenyl)-1-piperazinecarboxylic acid (1H-indazol-3-yl)amide], the IC50 came to 220 nM.

Take `O=C(Nc1n[nH]c2ccccc12)N1CCc2c([nH]c3cc(Cl)ccc23)C1` [Ex. 75]: the IC50 was 110 nM.

Take `O=C(Nc1n[nH]c2ccccc12)N1CCc2c([nH]c3cc(Cl)c(C(F)(F)F)cc23)C1` [Ex. 83, 7-chloro-6-(trifluoromethyl)-1,3,4,9-tetrahydro-β-carboline-2-carboxylic acid (1H-indazol-3-yl)amide]: the IC50 turned out to be 420 nM.

Take `Cc1ccc(C2(O)CCN(C(=O)Nc3n[nH]c4ccccc34)CC2)cc1C` [Ex. 142, 4-(3,4-dimethylphenyl)-4-hydroxy-1-piperidinecarboxylic acid (1H-indazol-3-yl)amide]: the IC50 was found to be 400 nM.

For the molecule `O=C(Nc1n[nH]c2ccccc12)N1CCc2c([nH]c3ccccc23)C1` [Ex. 64], the IC50 worked out at 120 nM.

As for `O=C(Nc1n[nH]c2ccccc12)N1CCc2c([nH]c3ccc(Cl)cc23)C1` [Ex. 72], the IC50 was 100 nM.

Regarding `Cc1cc(C)cc(C2(O)CCN(C(=O)Nc3n[nH]c4ccccc34)CC2)c1` [Ex. 143, 4-(3,5-dimethylphenyl)-4-hydroxy-1-piperidinecarboxylic acid (1H-indazol-3-yl)amide], the IC50 was 280 nM.

Consider `O=C(Nc1n[nH]c2ccccc12)N1CCc2c(c(=O)oc3ccccc23)C1` [Ex. 103, 5-oxo-1,5-dihydro-2H-chromeno[3,4-c]pyridine-3-carboxylic acid (1H-indazol-3-yl)amide], for which the IC50 came out at 60 nM.

Take `CCc1cccc(C2(O)CCN(C(=O)Nc3n[nH]c4ccccc34)CC2)c1` [Ex. 31]: the IC50 was 550 nM.

For `Cc1ccc(C2(O)CCN(C(=O)Nc3n[nH]c4ccccc34)CC2)cc1C(F)(F)F` [Ex. 10], the IC50 came to 530 nM.

Take `Cc1cccc(C2(O)CCN(C(=O)Nc3n[nH]c4ccccc34)CC2)c1` [Ex. 28]: the IC50 worked out at 360 nM.

As to `Cn1c2c(c3ccccc31)CCN(C(=O)Nc1n[nH]c3ccccc13)C2` [Ex. 65], the IC50 worked out at 160 nM.

For `O=C(Nc1n[nH]c2ccccc12)N1CCc2c([nH]c(=O)c3ccccc23)C1` [Ex. 109, 6-oxo-1,4,5,6-tetrahydrobenzo[c]-1,7-naphthyridine-3-carboxylic acid (1H-indazol-3-yl)amide], the IC50 is 140 nM.

Consider `Cc1c(Cl)cccc1C1(O)CCN(C(=O)Nc2n[nH]c3ccccc23)CC1` [Ex. 131, 4-(3-chloro-2-methylphenyl)-4-hydroxy-1-piperidinecarboxylic acid (1H-indazol-3-yl)amide], for which the IC50 came out at 440 nM.

Regarding `O=C(Nc1n[nH]c2ccccc12)N1CC=C(c2cccs2)CC1` [Ex. 60], the IC50 amounted to 130 nM.

Take `Cc1cccc2c3c([nH]c12)CN(C(=O)Nc1n[nH]c2ccccc12)CC3` [Ex. 79, 8-methyl-1,3,4,9-tetrahydro-β-carboline-2-carboxylic acid (1H-indazol-3-yl)amide]: the IC50 is 160 nM.

For the molecule `N#Cc1cccc(C2(O)CCN(C(=O)Nc3n[nH]c4ccccc34)CC2)c1` [Ex. 29], the IC50 came to 910 nM.

On to `O=C(Nc1n[nH]c2ccccc12)N1CCc2c([nH]c3ccc(O)cc23)C1` [Ex. 74], for which the IC50 is 150 nM.

For `O=C(Nc1n[nH]c2ccccc12)N1CCC(O)(c2cc(Cl)ccc2Cl)CC1` [Ex. 33], the IC50 stood at 310 nM.

For the origin of these results see patent US7994196B2, “Indazole compound and pharmaceutical use thereof” (Mitsubishi Tanabe Pharma Corporation, priority 2004, dated 2011).
